Source: US11203613B2, “Peptidomimetic proteasome inhibitors” (CORNELL UNIVERSITY, priority 2017, dated 2021)
Several values for one entry are separate records, joined by “and”; a condition that tells them apart may be missing. Identical values can stand only once. Like-named read-outs stand apart in the source and are kept apart here.

Target: Human Constitutive (Hu C-20S) β5 Active Subunit (Homo sapiens, UniProt P28074)
Test: IC50 determination, human constitutive 20S proteasome β5c (suc-LLVY-AMC hydrolysis)
Assay type: biochemical
[1] = Table 3, IC50 against human constitutive β5 active subunit, read-out: Hu-C20S β5

Row | Structure (SMILES) | IC50 [1] [µM] | IC50 (Table 2, several values in a cell are repeat determinations, read-out: Hu c-20S IC50)
1 | Cc1ccc(S(=O)(=O)N[C@@H](CC(=O)N2CCCC[C@@H]2C)C(=O)N[C@@H](C)c2ncc(-c3ccc(F)cc3F)[nH]2)cc1 [CEN-113, (S)—N—((S)-1-(5-(2,4-Difluorophenyl)-1H-imidazol-2-yl)ethyl)-2-((4-methylphenyl)sulfonamido)-4-((S)-2-methylpiperidin-1-yl)-4-oxobutanamide] | 6.5 | –
2 | CC[C@H]1CCCCN1C(=O)C[C@H](Nc1nc2ccccc2o1)C(=O)N[C@@H](C)c1nc2c(F)cccc2[nH]1 [CEN-16, (S)-2-(Benzo[d]oxazol-2-ylamino)-4-((S)-2-ethylpiperidin-1-yl)-N—((S)-1-(4-fluoro-1H-benzo[d]imidazol-2-yl)ethyl)-4-oxobutanamide] | 4.5 | –
3 | Cc1ncc(C(=O)N[C@@H](CC(=O)N2CCCC[C@@H]2C)C(=O)N[C@@H](C)c2ncc(-c3ccc(F)cc3F)[nH]2)s1 [CEN-105, N—((S)-1-(((S)-1-(5-(2,4-Difluorophenyl)-1H-imidazol-2-yl)ethyl)amino)-4-((S)-2-methylpiperidin-1-yl)-1,4-dioxobutan-2-yl)-2-methylthiazole-5-carboxamide] | 3.9 | –
4 | C[C@H](NC(=O)[C@H](CC(=O)N1CCCC[C@@H]1C)NC(=O)C1CC2(CCC2)C1)c1nc2c(F)cccc2[nH]1 [CEN-42, N—((S)-1-(((S)-1-(4-Fluoro-1H-benzo[d]imidazol-2-yl)ethyl)amino)-4-((S)-2-methylpiperidin-1-yl)-1,4-dioxobutan-2-yl)spiro[3.3]heptane-2-carboxamide] | 27.4 | –
5 | Cc1cc(C(=O)N[C@@H](CC(=O)N2CCCC2)C(=O)N[C@@H](C)c2ncc(-c3ccc(F)cc3F)[nH]2)no1 [CEN-80, N—((S)-1-(((S)-1-(5-(2,4-Difluorophenyl)-1H-imidazol-2-yl)ethyl)amino)-1,4-dioxo-4-(pyrrolidin-1-yl)butan-2-yl)-5-methylisoxazole-3-carboxamide] | 16.7 | –
6 | C[C@H](NC(=O)[C@@H](NC(=O)CCc1ccc(F)cc1)[C@@H](C)O)c1nc2c(F)cccc2[nH]1 [CEN-72, (2S,3R)—N—((S)-1-(4-Fluoro-1H-benzo[d]imidazol-2-yl)ethyl)-2-(3-(4-fluorophenyl)propanamido)-3-hydroxybutanamide] | > 100 | –
7 | CC[C@H]1CCCCN1C(=O)C[C@H](Nc1nc(C(C)C)no1)C(=O)N[C@@H](C)c1nc2c(F)cccc2[nH]1 [CEN-8, (S)-4-((S)-2-Ethylpiperidin-1-yl)-N—((S)-1-(4-fluoro-1H-benzo[d]imidazol-2-yl)ethyl)-2-((3-isopropyl-1,2,4-oxadiazol-5-yl)amino)-4-oxobutanamide] | 3.6 | –
8 | CC[C@H]1CCCCN1C(=O)C[C@H](NC(=O)CCC(C)(C)C)C(=O)N[C@@H](C)c1nc2ccccc2[nH]1 [CF-503217] | – | 6.85 µM and 8.99 µM
9 | CC[C@H]1CCCCN1C(=O)C[C@H](NC(=O)c1cc(C)on1)C(=O)N[C@@H](C)c1nc2c(F)cccc2[nH]1 [CEN-6, N—((S)-4-((S)-2-Ethylpiperidin-1-yl)-1-(((S)-1-(4-fluoro-1H-benzo[d]imidazol-2-yl)ethyl)amino)-1,4-dioxobutan-2-yl)-5-methylisoxazole-3-carboxamide] | 7.1 | –
10 | C[C@H](NC(=O)[C@H](CC(=O)N1CCC[C@@H]1c1ccccc1)NC(=O)CCCC(F)(F)F)c1nc2ccccc2s1 [CEN-67, N—((S)-1-(((S)-1-(Benzo[d]thiazol-2-yl)ethyl)amino)-1,4-dioxo-4-((R)-2-phenylpyrrolidin-1-yl)butan-2-yl)-5,5,5-trifluoropentanamide] | > 100 | –
11 | C[C@@H](NC(=O)[C@H](CC(=O)N1CCCC[C@@H]1C)NC(=O)CC1CC(C)(C)C1)c1nc2c(F)cccc2[nH]1 [CEN-44, (S)-2-(2-(3,3-Dimethylcyclobutyl)acetamido)-N—((R)-1-(4-fluoro-1H-benzo[d]imidazol-2-yl)ethyl)-4-((S)-2-methylpiperidin-1-yl)-4-oxobutanamide] | 0.9 | –
12 | Cc1cc(C(=O)N[C@@H](CC(=O)N2CCC[C@@H]2c2ccccc2)C(=O)N[C@@H](C)c2ncc(Cc3ccccc3)[nH]2)no1 [CEN-123, N—((S)-1-(((S)-1-(5-Benzyl-1H-imidazol-2-yl)ethyl)amino)-1,4-dioxo-4-((R)-2-phenylpyrrolidin-1-yl)butan-2-yl)-5-methylisoxazole-3-carboxamide] | 7.4 | –
13 | CCS(=O)(=O)N[C@@H](CC(=O)N1CCCC[C@@H]1C)C(=O)N[C@@H](C)c1ncc(-c2ccc(F)cc2F)[nH]1 [CEN-86, (S)—N—((S)-1-(5-(2,4-Difluorophenyl)-1H-imidazol-2-yl)ethyl)-2-(ethylsulfonamido)-4-((S)-2-methylpiperidin-1-yl)-4-oxobutanamide] | 28.2 | –
14 | CC1CC(C(=O)N[C@@H](CC(=O)N2CCC[C@@H]2c2ccccc2)C(=O)NC(C)c2nc3ccccc3[nH]2)C1 (stereo partly drawn) [CEN-46, N-((2S)-1-((1-(1H-Benzo[d]imidazol-2-yl)ethyl)amino)-1,4-dioxo-4-((R)-2-phenylpyrrolidin-1-yl)butan-2-yl)-3-methylcyclobutane-1-carboxamide] | 8.4 | –
15 | CC[C@H]1CCCCN1C(=O)C[C@H](Nc1nc2ccccc2s1)C(=O)N[C@@H](C)c1nc2c(F)cccc2[nH]1 [CEN-22, (S)-2-(Benzo[d]thiazol-2-ylamino)-4-((S)-2-ethylpiperidin-1-yl)-N—((S)-1-(4-fluoro-1H-benzo[d]imidazol-2-yl)ethyl)-4-oxobutanamide] | 1.2 | –
16 | C[C@H](NC(=O)[C@H](CC(=O)N1CCCC1C1CC1)NC(=O)C1CC2(C1)CC(F)(F)C2)c1nc2cccc(F)c2[nH]1 (stereo partly drawn) [CEN-61, N-((2S)-4-(2-Cyclopropylpyrrolidin-1-yl)-1-(((S)-1-(7-fluoro-1H-benzo[d]imidazol-2-yl)ethyl)amino)-1,4-dioxobutan-2-yl)-6,6-difluorospiro[3.3]heptane-2-carboxamide] | 8.8 | –
17 | C[C@H](NC(=O)[C@H](CC(=O)N1CCCC[C@@H]1C)NC(=O)CCC1CC1)c1ncc(-c2ccc(F)cc2F)[nH]1 [CEN-87, (S)-2-(3-Cyclopropylpropanamido)-N—((S)-1-(5-(2,4-difluorophenyl)-1H-imidazol-2-yl)ethyl)-4-((S)-2-methylpiperidin-1-yl)-4-oxobutanamide] | 11.7 | –
18 | CC[C@H]1CCCCN1C(=O)C[C@H](NC(=O)c1cnc(C)s1)C(=O)N[C@@H](C)c1nc2c(F)cccc2[nH]1 [CEN-18, N—((S)-4-((S)-2-Ethylpiperidin-1-yl)-1-(((S)-1-(4-fluoro-1H-benzo[d]imidazol-2-yl)ethyl)amino)-1,4-dioxobutan-2-yl)-2-methylthiazole-5-carboxamide] | 9.5 | –
19 | CCN(CC)C(=O)C[C@H](NC(=O)CCC(C)C)C(=O)N[C@@H](C)c1ncc(-c2ccc(F)cc2F)[nH]1 [CEN-79, (S)—N1-((S)-1-(5-(2,4-Difluorophenyl)-1H-imidazol-2-yl)ethyl)-N4,N4-diethyl-2-(4-methylpentanamido)succinamide] | 7.3 | –
20 | Cc1ccc(S(=O)(=O)N[C@@H](CCC(=O)NC(C)(C)C)C(=O)NC2(c3nc4c(F)cccc4[nH]3)CC2)cc1 [CEN-70, (S)—N^5-(tert-Butyl)-N^1-(1-(4-fluoro-1H-benzo[d]Imidazol-2-yl)cyclopropyl)-2-((4-methylphenyl)sulfonamido)pentanediamide] | > 100 | –
